# Data reported in article PMC6277767, “Broad and Region-Specific Impacts of the Synthetic Cannabinoid CP 55,940 in Adolescent and Adult Female Mouse Brains” (Frontiers in Molecular Neuroscience, 2018).
# System: CD1 female mouse brain lipidome
# Test: Brain-region lipid levels (HPLC/MS/MS lipidomics) 2 h after single i.p. 3 mg/kg CP 55,940 vs vehicle
# Type: in vivo
# Parameters: N-arachidonoyl phenylalanine level, Mean / N-stearoyl tryptophan level, Mean / N-stearoyl proline level, Mean / N-stearoyl leucine level, Mean / N-stearoyl phenylalanine level, Mean / N-stearoyl serine level, Mean / N-stearoyl methionine level, Mean: unit: moles per gram
# Method: The Bloomington Institutional Animal Care and Use Committee of Indiana University reviewed and approved the animal procedures. Female mice from the CD1 strain were utilized to match our study examining THC’s effects on the brain lipidome ([Leishman et al., 2018]). Mice were given a single i.p. injection of either 3 mg/kg CP or 1:1:18 cremophor:ethanol:saline vehicle (please refer to the section “3 mg/kg CP Is Relevant for Synthetic Cannabinoid Abuse and Has Stronger Effects on the Female Mouse Brain Lipidome During Adolescence” for a justification of dose and use of female mice). Three different age groups were given injections: PND 35 and PND 50 adolescents, and adult mice (PND 113). At least eight mice in each age group received CP and at least eight received vehicle. Matching the THC study time course ([Leishman et al., 2018]), mice were sacrificed via rapid decapitation 2 h after injection. Brains were immediately removed and flash-frozen in liquid nitrogen, and then stored at -80°C until dissections were performed. Brains were dissected on an ice-cold dissection plate into the following regions: STR, HIPP, CER, THAL, CTX, HYP, MID, and STEM. These abbreviations for these brain areas will be used exclusively when discussing the results generated by these specific dissections. Each dissected area was immediately placed in liquid nitrogen and then stored at -80°C until used for lipid extraction.
# Tissue extracts were performed as previously described ([Bradshaw et al., 2006]; [Stuart et al., 2013]; [Raboune et al., 2014]; [Leishman et al., 2016a],[b], [2017], [2018]). First, samples were shock frozen in liquid nitrogen, weighed, and transferred to a centrifuge tube. The mass of the largest sample was multiplied by 50 to determine how many milliliters of HPLC-grade methanol (Fisher, Fair Lawn, NJ, United States) to add. Then, samples were spiked with 500 pmol deuterium-labeled NAGly (d8NAGly; Cayman Chemical, Ann Arbor, MI, United States). Samples were placed on ice in darkness for 2 h then individually homogenized and centrifuged at 19,000 × g for 20 min at 20°C. Supernatants were diluted with HPLC water (purified in house) to make a solution of 75% water, 25% supernatant. Lipids were partially purified on C18 solid phase extraction columns (Agilent, Palo Alto, CA, United States). A series of four elutions with 1.5 mL of 60%, 75%, 85%, and 100% methanol were collected ([Stuart et al., 2013]; [Leishman et al., 2016a],[b], [2018]).
# As previously described ([Bradshaw et al., 2006]; [Tan et al., 2006]; [Smoum et al., 2010]; [Stuart et al., 2013]; [Tortoriello et al., 2013]; [Raboune et al., 2014]; [Leishman et al., 2016a],[b], [2017], [2018]), samples were analyzed using an Applied Biosystems API 3000 triple quadrupole mass spectrometer with electrospray ionization (Foster City, CA, United States). Using an Agilent XDB-C18 reversed phase analytical column and optimized mobile phase gradients, 20 μL from each elution were chromatographed. Two Shimadzu 10ADvp pumps (Columbia, MD, United States) provided the pressure for gradient elution. Mobile phase A: 20% methanol, 80% water (v/v) and 1 mM ammonium acetate (Sigma, St. Louis, MO, United States). Mobile phase B: 100% methanol, 1 mM ammonium acetate. Every method run began with 0% mobile phase B, reached 100% mobile phase B flowing at 0.2 mL/min, and gradually returned to 0% mobile phase B.
# This screening library will be referred to as the lipidome when discussing data from this study. HPLC/MS/MS data were analyzed using Analyst software (Applied Biosystems) ([Bradshaw et al., 2006]; [Tan et al., 2006]; [Stuart et al., 2013]; [Tortoriello et al., 2013]; [Raboune et al., 2014]; [Leishman et al., 2016a],[b], [2017], [2018]). Chromatograms (Supplementary Figure 3) were generated by determining the retention time of analytes from the analytical column with a [M-1] or [M+1] parent peak and a fragmentation peak corresponding to the programmed values. […]
# [1] = adult brainstem, 3mg/kg CP 55,940
compound,measurement,setting,value
"CCCCCCC(C)(C)c1ccc([C@@H]2C[C@H](O)CC[C@H]2CCCO)c(O)c1 [CP 55,940]",N-stearoyl serine level vs vehicle,adult HIPP,↓ (1-1.49 times lower than vehicle)
same,PGE2 level vs vehicle,adult HIPP,↑ (1-1.49 times higher than vehicle)
same,PGE2 mean level in CP group divided by vehicle group,adult HIPP,1.18
same,PGF2α level vs vehicle,adult HIPP,↑ (1-1.49 times higher than vehicle)
same,number of lipids changed,adult HIPP,12
same,phosphoLEA level vs vehicle,adult HIPP,↑ (1-1.49 times higher than vehicle)
same,PGE2 mean level,"adult HIPP, CP group",3.37x10^-10 moles per gram
same,6-ketoPGF1α level vs vehicle,adult HYP,↓↓ (1.50-1.99 times lower than vehicle)
same,N-arachidonoyl GABA level vs vehicle,adult HYP,↓ (1-1.49 times lower than vehicle)
same,N-arachidonoyl taurine level vs vehicle,adult HYP,↑ (1-1.49 times higher than vehicle)
same,N-palmitoyl phenylalanine level vs vehicle,adult HYP,↑↑ (1.50-1.99 times higher than vehicle)
same,PGE2 level vs vehicle,adult HYP,↑ (1-1.49 times higher than vehicle)
same,PGF2α level vs vehicle,adult HYP,↓ (1-1.49 times lower than vehicle)
same,number of lipids changed,adult HYP,7
same,phosphoLEA level vs vehicle,adult HYP,↓ (1-1.49 times lower than vehicle)
same,2-arachidonoyl glycerol level vs vehicle,adult MID,↓ (1-1.49 times lower than vehicle)
same,2-linoleoyl glycerol level vs vehicle,adult MID,↓ (1-1.49 times lower than vehicle)
same,2-oleoyl glycerol level vs vehicle,adult MID,↓ (1-1.49 times lower than vehicle)
same,6-ketoPGF1α level vs vehicle,adult MID,↑ (1-1.49 times higher than vehicle)
same,Arachidonic acid level vs vehicle,adult MID,↓ (1-1.49 times lower than vehicle)
same,N-arachidonoyl ethanolamine level vs vehicle,adult MID,↓ (1-1.49 times lower than vehicle)
same,N-arachidonoyl serine level vs vehicle,adult MID,↓↓ (1.50-1.99 times lower than vehicle)
same,N-linoleoyl glycine level vs vehicle,adult MID,↓↓ (1.50-1.99 times lower than vehicle)
same,N-linoleoyl serine level vs vehicle,adult MID,↓ (1-1.49 times lower than vehicle)
same,N-palmitoyl ethanolamine level vs vehicle,adult MID,↓ (1-1.49 times lower than vehicle)
same,N-stearoyl ethanolamine level vs vehicle,adult MID,↑ (1-1.49 times higher than vehicle)
same,PGE2 level vs vehicle,adult MID,↑ (1-1.49 times higher than vehicle)
same,changes in lipid levels that were decreases,adult MID,10
same,changes in lipid levels that were increases,adult MID,3
same,percentage of lipids detected that decreased,adult MID,18.52%
same,percentage of lipids detected that increased,adult MID,5.55%
same,phosphoLEA level vs vehicle,adult MID,↓ (1-1.49 times lower than vehicle)
same,number of lipids changed,"adult MID, 54 detected",13
same,2-arachidonoyl glycerol level vs vehicle,adult STEM,↓ (1-1.49 times lower than vehicle)
same,2-linoleoyl glycerol level vs vehicle,adult STEM,↓ (1-1.49 times lower than vehicle)
same,2-oleoyl glycerol level vs vehicle,adult STEM,↓ (1-1.49 times lower than vehicle)
same,2-palmitoyl glycerol level vs vehicle,adult STEM,↓ (1-1.49 times lower than vehicle)
same,Arachidonic acid level vs vehicle,adult STEM,↓ (1-1.49 times lower than vehicle)
same,Linoleic acid level vs vehicle,adult STEM,↓ (1-1.49 times lower than vehicle)
same,N-arachidonoyl taurine level vs vehicle,adult STEM,↓ (1-1.49 times lower than vehicle)
same,N-arachidonoyl tyrosine level vs vehicle,adult STEM,↓↓ (1.50-1.99 times lower than vehicle)
same,N-oleoyl ethanolamine level vs vehicle,adult STEM,↓ (1-1.49 times lower than vehicle)
same,N-palmitoyl leucine level vs vehicle,adult STEM,↑ (1-1.49 times higher than vehicle)
same,N-palmitoyl valine level vs vehicle,adult STEM,↑ (1-1.49 times higher than vehicle)
same,Oleic Acid level vs vehicle,adult STEM,↓ (1-1.49 times lower than vehicle)
same,PGE2 level vs vehicle,adult STEM,↓ (1-1.49 times lower than vehicle)
same,number of lipids changed,adult STEM,13
same,2-arachidonoyl glycerol level vs vehicle,adult STR,↓ (1-1.49 times lower than vehicle)
same,Arachidonic acid level vs vehicle,adult STR,↓ (1-1.49 times lower than vehicle)
same,N-arachidonoyl ethanolamine level vs vehicle,adult STR,↓↓ (1.50-1.99 times lower than vehicle)
same,N-docosahexaenoyl ethanolamine level vs vehicle,adult STR,↓ (1-1.49 times lower than vehicle)
same,N-linoleoyl ethanolamine level vs vehicle,adult STR,↓ (1-1.49 times lower than vehicle)
same,N-oleoyl ethanolamine level vs vehicle,adult STR,↓↓ (1.50-1.99 times lower than vehicle)
same,N-oleoyl leucine level vs vehicle,adult STR,↑ (1-1.49 times higher than vehicle)
same,N-palmitoyl serine level vs vehicle,adult STR,↓ (1-1.49 times lower than vehicle)
same,number of lipids changed,adult STR,8
same,2-arachidonoyl glycerol level vs vehicle,adult THAL,↓ (1-1.49 times lower than vehicle)
same,2-linoleoyl glycerol level vs vehicle,adult THAL,↓ (1-1.49 times lower than vehicle)
same,6-ketoPGF1α level vs vehicle,adult THAL,↑ (1-1.49 times higher than vehicle)
same,Arachidonic acid level vs vehicle,adult THAL,↓ (1-1.49 times lower than vehicle)
same,N-arachidonoyl GABA level vs vehicle,adult THAL,↓ (1-1.49 times lower than vehicle)
same,N-arachidonoyl alanine level vs vehicle,adult THAL,↓↓ (1.50-1.99 times lower than vehicle)
same,N-arachidonoyl ethanolamine level vs vehicle,adult THAL,↓ (1-1.49 times lower than vehicle)
same,N-arachidonoyl glycine level vs vehicle,adult THAL,↓↓ (1.50-1.99 times lower than vehicle)
same,N-oleoyl ethanolamine level vs vehicle,adult THAL,↓ (1-1.49 times lower than vehicle)
same,N-palmitoyl GABA level vs vehicle,adult THAL,↑ (1-1.49 times higher than vehicle)
same,N-palmitoyl ethanolamine level vs vehicle,adult THAL,↓ (1-1.49 times lower than vehicle)
same,N-palmitoyl leucine level vs vehicle,adult THAL,↑ (1-1.49 times higher than vehicle)
same,N-palmitoyl methionine level vs vehicle,adult THAL,↑ (1-1.49 times higher than vehicle)
same,N-palmitoyl valine level vs vehicle,adult THAL,↑↑ (1.50-1.99 times higher than vehicle)
same,Oleic Acid level vs vehicle,adult THAL,↓ (1-1.49 times lower than vehicle)
same,number of lipids changed,adult THAL,15
same,changes in PG levels,adult brain,14
same,changes in lipoamines derived from AA,adult brain,20
same,decreases in 2-acyl glycerol levels,adult brain,15
same,decreases in PG levels,adult brain,8
same,decreases in free fatty acid levels,adult brain,11
same,increases in PG levels,adult brain,6
same,percentage of detected lipids modified with acute CP,"adult brain, 406 detected",23.89%
same,"2-arachidonoyl glycerol, Direction (relative to Veh)",[1],↓
same,"2-arachidonoyl glycerol, Magnitude (x Veh level)",[1],0.78 x Veh level
same,2-linoleoyl glycerol Direction (relative to Veh),[1],↓
same,2-linoleoyl glycerol Magnitude (x Veh level),[1],0.76 x Veh level
same,"2-oleoyl glycerol, Direction (relative to Veh)",[1],↓
same,"2-oleoyl glycerol, Magnitude (x Veh level)",[1],0.82 x Veh level
same,"2-palmitoyl glycerol, Direction (relative to Veh)",[1],↓
same,"2-palmitoyl glycerol, Magnitude (x Veh level)",[1],0.80 x Veh level
same,"Arachidonic acid, Direction (relative to Veh)",[1],↓
same,"Arachidonic acid, Magnitude (x Veh level)",[1],0.86 x Veh level
same,"Linoleic acid, Direction (relative to Veh)",[1],↓
same,"Linoleic acid, Magnitude (x Veh level)",[1],0.71 x Veh level
same,"N-arachidonoyl GABA level, Mean",[1],1.08E-11
same,"N-arachidonoyl alanine level, Mean",[1],9.45E-13
same,"N-arachidonoyl dopamine level, Mean",[1],BDL
same,"N-arachidonoyl ethanolamine level, Mean",[1],1.14E-11
same,"N-arachidonoyl glycine level, Mean",[1],1.87E-12
same,"N-arachidonoyl phenylalanine level, Mean",[1],5.84E-14
same,N-arachidonoyl taurine Direction (relative to Veh),[1],↓
same,N-arachidonoyl taurine Magnitude (x Veh level),[1],0.94 x Veh level
same,"N-arachidonoyl tyrosine, Direction (relative to Veh)",[1],↓
same,"N-arachidonoyl tyrosine, Magnitude (x Veh level)",[1],0.66 x Veh level
same,"N-docosahexaenoyl GABA level, Mean",[1],7.61E-12
